The supplement of paper PMC10307832

Columns and labels:
Test in all cases: relative viability (nuclei count vs DMSO), 5 days (fraction); higher = more cells survive
Metformin + Tozasertib = compound: CN(C)C(=N)NC(=N)N [Metformin] + Cc1cc(Nc2cc(N3CCN(C)CC3)nc(Sc3ccc(NC(=O)C4CC4)cc3)n2)n[nH]1 [Tozasertib] (partner 0.1 µM)
Outline: (§1)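 Lung cancer cell lines were seeded in 1536-well plates and dosed by pin tool the next day, with either a single drug or a fixed anchor-drug dose combined with five library-drug doses (not always all listed) spaced in √10 steps. Five days later, one step fixed the cells and stained their nuclei (final 0.05% Triton X-100, 1% formaldehyde, 1 ug/ml Hoechst), and nuclei were counted on 4× images. Relative viability is the nuclei count in treated wells divided by the count in vehicle wells, and each value is the median of duplicate plates.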

Metformin + OSI-027 = compound: CN(C)C(=N)NC(=N)N [Metformin] + COc1cccc2cc(-c3nc([C@H]4CC[C@H](C(=O)O)CC4)n4ncnc(N)c34)[nH]c12 [OSI-027] (partner 0.5 µM)
Outline: as §1

Apatinib + Alpelisib = compound: N#CC1(c2ccc(NC(=O)c3cccnc3NCc3ccncc3)cc2)CCCC1 [Apatinib] + Cc1nc(NC(=O)N2CCC[C@H]2C(N)=O)sc1-c1ccnc(C(C)(C)C(F)(F)F)c1 [Alpelisib] (partner 2 µM)
Outline: as §1

Metformin + AZD7762 = compound: CN(C)C(=N)NC(=N)N [Metformin] + NC(=O)Nc1cc(-c2cccc(F)c2)sc1C(=O)N[C@H]1CCCNC1 [AZD7762] (partner 0.2 µM)
Outline: as §1

Cell Line | relative viability (Metformin + Tozasertib; first compound 10 µM) | relative viability (Metformin + Tozasertib; first compound 31.62 µM) | relative viability (Metformin + Tozasertib; first compound 100 µM) | relative viability (Metformin + Tozasertib; first compound 316.23 µM) | relative viability (Metformin + Tozasertib; first compound 1000 µM) | relative viability (Metformin + OSI-027; first compound 10 µM) | relative viability (Metformin + OSI-027; first compound 31.62 µM) | relative viability (Metformin + OSI-027; first compound 100 µM) | relative viability (Metformin + OSI-027; first compound 316.23 µM) | relative viability (Metformin + OSI-027; first compound 1000 µM) | relative viability (Apatinib + Alpelisib; first compound 0.08 µM) | relative viability (Apatinib + Alpelisib; first compound 0.253 µM) | relative viability (Apatinib + Alpelisib; first compound 0.8 µM) | relative viability (Apatinib + Alpelisib; first compound 2.53 µM) | relative viability (Apatinib + Alpelisib; first compound 8 µM) | relative viability (Metformin + AZD7762; first compound 10 µM) | relative viability (Metformin + AZD7762; first compound 31.62 µM) | relative viability (Metformin + AZD7762; first compound 100 µM) | relative viability (Metformin + AZD7762; first compound 316.23 µM) | relative viability (Metformin + AZD7762; first compound 1000 µM)
NCI-H2228 | 0.27 | 0.31 | 0.241 | 0.333 | 0.409 | 0.81 | 0.551 | 0.456 | 0.513 | 0.792 | 0.785 | 0.738 | 0.648 | 0.542 | 0.527 | – | – | – | – | –
NCI-H1299 | – | – | – | – | – | – | – | – | – | – | 1.06 | 1.05 | 1.03 | 1.04 | 0.929 | – | – | – | – | –
ChaGo-K-1 | 0.254 | 0.281 | 0.246 | 0.202 | 0.22 | 0.595 | 0.599 | 0.6 | 0.543 | 0.597 | – | – | – | – | – | 0.788 | 0.956 | 0.938 | 0.849 | 0.862
NCI-H522 | 0.68 | 0.695 | 0.693 | 0.609 | 0.764 | 0.796 | 0.752 | 0.708 | 0.744 | 0.667 | – | – | – | – | – | 1.02 | 0.986 | 0.97 | 0.985 | 1.07
NCI-H2009 | 0.761 | 0.856 | 0.802 | 0.759 | 0.783 | 0.754 | 0.821 | 0.752 | 0.692 | 0.601 | 1.13 | 1.2 | 1.1 | 1.02 | 0.893 | – | – | – | – | –
SW 1573 | 0.153 | 0.119 | 0.175 | 0.161 | 0.162 | 0.68 | 0.756 | 0.611 | 0.4 | 0.419 | 0.829 | 0.917 | 0.757 | 0.761 | 0.595 | – | – | – | – | –
NCI-H520 | 0.462 | 0.496 | 0.463 | 0.498 | 0.469 | 0.306 | 0.35 | 0.322 | 0.28 | 0.348 | 0.924 | 0.865 | 0.918 | 0.685 | 0.633 | – | – | – | – | –
NCI-H2023 | 0.32 | 0.413 | 0.479 | 0.301 | 0.324 | 0.421 | 0.558 | 0.379 | 0.397 | 0.378 | 0.64 | 0.675 | 0.587 | 0.514 | 0.559 | – | – | – | – | –
NCI-H1623 | 0.363 | 0.413 | 0.452 | 0.337 | 0.452 | 0.449 | 0.469 | 0.463 | 0.539 | 0.478 | – | – | – | – | – | – | – | – | – | –
NCI-H661 | 0.344 | 0.373 | 0.377 | 0.362 | 0.366 | 0.6 | 0.617 | 0.487 | 0.613 | 0.642 | 0.576 | 0.43 | 0.564 | 0.623 | 0.597 | – | – | – | – | –
NCI-H2342 | 0.507 | 0.447 | 0.618 | 0.35 | 0.276 | 0.538 | 0.617 | 0.55 | 0.549 | 0.568 | – | – | – | – | – | – | 0.441 | 0.366 | 0.46 | 0.386
A549 | – | – | – | – | – | – | – | – | – | – | 0.784 | 0.844 | 0.919 | 0.78 | 0.65 | – | – | – | – | –
EBC-1 | – | – | – | – | – | – | – | – | – | – | 0.844 | 0.935 | 0.88 | 0.734 | 0.404 | – | – | – | – | –
